Laboratory results reported in US8742078B2, “Antibacterial 4,6-substituted 6′, 6″ and 1 modified aminoglycoside analogs” (Isis Pharmaceuticals, Inc., priority 2008, dated 2014).

Experiments:
P. aeruginosa 29248 = test: MIC assay, P. aeruginosa 29248; assay type: cell-based; design: unit not given here; settings: range: complete growth inhibition at higher, viable cells at lower concentration; 20-24 hours at 37° C.
Description: (§1) The MIC assays are carried out in 150 μL volume in duplicate in 96-well clear flat-bottom plates. The bacterial suspension from an overnight culture growth in appropriate medium is added to a solution of test compound in 2.5% DMSO in water. Final bacterial inoculum is approximately 10^2-10^3 CFU/well. The percentage growth of the bacteria in test wells relative to that observed for control wells containing no compound is determined by measuring absorbance at 595 nm (A595) after 20-24 hours at 37° C. The MIC is determined as a range of concentration where complete inhibition of growth is observed at the higher concentration and bacterial cells are viable at the lower concentration. Both ampicillin and tetracycline are used as antibiotic positive controls in each screening assay. Both ampicillin and tetracycline are used as antibiotic-positive controls in each screening assay for S. pyogenes, E. coli imp-, E. coli, S. aureus, E. faecalis, K. pneumoniae and P. vulgaris. Ciprofloxacin is used as an antibiotic positive control in each screening assay for P. aeruginosa.

P. aeruginosa 27853 = test: MIC assay, P. aeruginosa 27853; assay type: cell-based; design: unit not given here; settings: range: complete growth inhibition at higher, viable cells at lower concentration; 20-24 hours at 37° C.
Description: as §1

With `NC[C@H]1O[C@H](O[C@H]2[C@H](O)[C@@H](O[C@H]3O[C@H](CO)[C@@H](O)[C@H](N)[C@H]3O)[C@H](N)C[C@@H]2N)[C@H](O)[C@@H](O)[C@@H]1O` [IBIS00262400, Kanamycin A, reference compound] the “MIC P aeruginosa 29248” value (P. aeruginosa 29248) was 2.5-5 and the “MIC P aeruginosa 27853” value (P. aeruginosa 27853) was 1.25-2.5.

With `CN(C)CCNCC1OC(OC2C(NC(=O)C(O)CCN)CC(N)C(OC3OC(CN)C(O)C(O)C3O)C2O)C(O)C(N)C1O` (stereo not shown) [IBIS00561983, 6″-deoxy-6″-dimethylaminoethylamino-N-1-(4-amino-2-S-hydroxybutyryl)kanamycin A] the “MIC P aeruginosa 29248” value (P. aeruginosa 29248) was 1.25-2.5 and the “MIC P aeruginosa 27853” value (P. aeruginosa 27853) was 1.25-2.5.

For `[N-]=[N+]=NC[C@H]1O[C@H](O[C@@H]2[C@@H](O)[C@H](O[C@H]3O[C@H](CN)[C@@H](O)[C@H](O)[C@H]3O)[C@@H](N)C[C@H]2NC(=O)[C@@H](O)CCN)[C@H](O)[C@@H](N)[C@@H]1O` [IBIS00561980, 6″-deoxy-6″-azido-N-1-(4-amino-2-S-hydroxybutyryl)kanamycin A], the “MIC P aeruginosa 29248” value (P. aeruginosa 29248) was 0.625-1.25 and the “MIC P aeruginosa 27853” value (P. aeruginosa 27853) was 2.5-5.0.

For `NCC[C@H](O)C(=O)N[C@@H]1C[C@H](N)[C@@H](O[C@H]2O[C@H](CN)[C@@H](O)[C@H](O)[C@H]2O)[C@H](O)[C@H]1O[C@H]1O[C@H](CNCCNCc2ccccc2)[C@@H](O)[C@H](N)[C@H]1O` [IBIS00561984, 6″-deoxy-6″-benzylaminoethylamino-N-1-(4-amino-2-S-hydroxybutyryl)kanamycin A], the “MIC P aeruginosa 29248” value (P. aeruginosa 29248) was 5.0-10.0 and the “MIC P aeruginosa 27853” value (P. aeruginosa 27853) was 5.0-10.0.

For `CN(C)CC1OC(OC2C(N)CC(NC(=O)[C@@H](O)CCN)C(OC3OC(CO)C(O)C(N)C3O)C2O)C(O)C(O)C1O` (stereo partly shown) [IBIS00561961, 6′-N,N-Dimethyl-N-1-(4-amino-2-S-hydroxybutyryl)kanamycin A], the “MIC P aeruginosa 29248” value (P. aeruginosa 29248) was greater than 40 and the “MIC P aeruginosa 27853” value (P. aeruginosa 27853) was 10-20.

With `CC(C)NC[C@H]1O[C@H](O[C@@H]2[C@@H](O)[C@H](O[C@H]3O[C@H](CN)[C@@H](O)[C@H](O)[C@H]3O)[C@@H](N)C[C@H]2NC(=O)[C@@H](O)CCN)[C@H](O)[C@@H](N)[C@@H]1O` [IBIS00561975, 6″-deoxy-6″-isopropylamino-N-1-(4-amino-2-S-hydroxybutyryl)kanamycin A] the “MIC P aeruginosa 29248” value (P. aeruginosa 29248) was 10-20 and the “MIC P aeruginosa 27853” value (P. aeruginosa 27853) was 10-20.

`CC(C)CNCC1OC(OC2C(N)CC(NC(=O)[C@@H](O)CCN)C(OC3OC(CO)C(O)C(N)C3O)C2O)C(O)C(O)C1O` (stereo partly shown) [IBIS00561963, 6′-N-Isobutyl-N-1-(4-amino-2-S-hydroxybutyryl)kanamycin A] was tested, and the “MIC P aeruginosa 29248” value (P. aeruginosa 29248) was greater than 40 and the “MIC P aeruginosa 27853” value (P. aeruginosa 27853) was 10-20.

`NCC[C@H](O)C(=O)N[C@@H]1C[C@H](N)[C@@H](O[C@H]2O[C@H](CN)[C@@H](O)[C@H](O)[C@H]2O)[C@H](O)[C@H]1O[C@H]1O[C@H](CO)[C@@H](O)[C@H](N)[C@H]1O` [IBIS00404962, Amikacin, reference compound] was tested, and the “MIC P aeruginosa 29248” value (P. aeruginosa 29248) was less than 0.625 and the “MIC P aeruginosa 27853” value (P. aeruginosa 27853) was 1.25-2.5.

With `NCC[C@H](O)C(=O)NC1CC(N)C(OC2OC(CN)C(O)C(O)C2O)C(O)C1OC1OC(CNC2CCCCC2)C(O)C(N)C1O` (stereo partly shown) [IBIS00561976, 6″-deoxy-6″-cyclohexylamino-N-1-(4-amino-2-S-hydroxybutyryl)kanamycin A] the “MIC P aeruginosa 29248” value (P. aeruginosa 29248) was 5-10 and the “MIC P aeruginosa 27853” value (P. aeruginosa 27853) was greater than 40.

`NCC[C@H](O)C(=O)N[C@@H]1C[C@H](N)[C@@H](O[C@H]2O[C@H](CNCCc3ccccc3)[C@@H](O)[C@H](O)[C@H]2O)[C@H](O)[C@H]1O[C@H]1O[C@H](CO)[C@@H](O)[C@H](N)[C@H]1O` [IBIS00561960, 6′-N-Phenethylamino-N-1-(4-amino-2-S-hydroxybutyryl)kanamycin A] was tested, and the “MIC P aeruginosa 29248” value (P. aeruginosa 29248) was 5-10 and the “MIC P aeruginosa 27853” value (P. aeruginosa 27853) was 2.5-5.0.

`CCCNC[C@H]1O[C@H](O[C@@H]2[C@@H](O)[C@H](O[C@H]3O[C@H](CN)[C@@H](O)[C@H](O)[C@H]3O)[C@@H](N)C[C@H]2NC(=O)[C@@H](O)CCN)[C@H](O)[C@@H](N)[C@@H]1O` [IBIS00561982, 6″-deoxy-6″-propylamino-N-1-(4-amino-2-S-hydroxybutyryl)kanamycin A] was tested, and the “MIC P aeruginosa 29248” value (P. aeruginosa 29248) was 2.5-5.0 and the “MIC P aeruginosa 27853” value (P. aeruginosa 27853) was 5.0-10.0.

“6″-deoxy-6″-phenethylamino-N-1-(4-amino-2-S-hydroxybutyryl)kanamycin A [IBIS00561977]” was tested, and the “MIC P aeruginosa 29248” value (P. aeruginosa 29248) was 5-10 and the “MIC P aeruginosa 27853” value (P. aeruginosa 27853) was 10-20.

With `NCC[C@H](O)C(=O)N[C@@H]1C[C@H](N)[C@@H](O[C@H]2O[C@H](CNCCCc3ccccc3)[C@@H](O)[C@H](O)[C@H]2O)[C@H](O)[C@H]1O[C@H]1O[C@H](CO)[C@@H](O)[C@H](N)[C@H]1O` [IBIS00561962, 6′-N-Phenpropylamino-N-1-(4-amino-2-S-hydroxybutyryl)kanamycin A] the “MIC P aeruginosa 29248” value (P. aeruginosa 29248) was 2.5-5.0 and the “MIC P aeruginosa 27853” value (P. aeruginosa 27853) was 2.5-5.0.

For `CNC[C@H]1O[C@H](O[C@@H]2[C@@H](O)[C@H](O[C@H]3O[C@H](CN)[C@@H](O)[C@H](O)[C@H]3O)[C@@H](N)C[C@H]2NC(=O)[C@@H](O)CCN)[C@H](O)[C@@H](N)[C@@H]1O` [IBIS00561974, 6″-deoxy-6″-methylamino-N-1-(4-amino-2-S-hydroxybutyryl)kanamycin A], the “MIC P aeruginosa 29248” value (P. aeruginosa 29248) was 0.625-1.25 and the “MIC P aeruginosa 27853” value (P. aeruginosa 27853) was 2.5-5.0.
